Assay results published in article PMC6481723, “Fibroblast migration correlates with matrix softness. A study in knob-hole engineered fibrin” (APL Bioengineering, 2018).
Where two headings read alike, the source gives them in different places. Ends that are not written are not given here.

Experiments:
bovine fibrinogen = target: T1, bovine fibrinogen (Bos taurus, UniProt P02672+P02676+P12799); assay: Isothermal titration calorimetry (ITC) binding to fibrinogen; conditions: ITC in HBS; peptides 5.7-5.9 mM titrated into 0.175 mM fibrinogen; PEG-pep1 1.7 mM or PEG-pep2 5.2 mM into 0.012 mM fibrinogen; n = 3 independent samples
T1 sequence (P12799 25-444): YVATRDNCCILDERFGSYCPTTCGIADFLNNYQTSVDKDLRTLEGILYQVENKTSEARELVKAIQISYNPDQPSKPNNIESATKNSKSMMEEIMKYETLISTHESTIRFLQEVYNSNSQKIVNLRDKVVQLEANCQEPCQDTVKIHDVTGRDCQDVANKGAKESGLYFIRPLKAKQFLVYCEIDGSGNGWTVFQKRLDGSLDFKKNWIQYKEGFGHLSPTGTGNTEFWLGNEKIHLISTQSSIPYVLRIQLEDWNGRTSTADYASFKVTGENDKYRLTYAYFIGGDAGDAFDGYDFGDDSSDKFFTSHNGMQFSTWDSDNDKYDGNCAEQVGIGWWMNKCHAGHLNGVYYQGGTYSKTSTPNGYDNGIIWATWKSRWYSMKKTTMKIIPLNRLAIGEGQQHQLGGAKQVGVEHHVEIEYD
T1 sequence (P02676 1-468): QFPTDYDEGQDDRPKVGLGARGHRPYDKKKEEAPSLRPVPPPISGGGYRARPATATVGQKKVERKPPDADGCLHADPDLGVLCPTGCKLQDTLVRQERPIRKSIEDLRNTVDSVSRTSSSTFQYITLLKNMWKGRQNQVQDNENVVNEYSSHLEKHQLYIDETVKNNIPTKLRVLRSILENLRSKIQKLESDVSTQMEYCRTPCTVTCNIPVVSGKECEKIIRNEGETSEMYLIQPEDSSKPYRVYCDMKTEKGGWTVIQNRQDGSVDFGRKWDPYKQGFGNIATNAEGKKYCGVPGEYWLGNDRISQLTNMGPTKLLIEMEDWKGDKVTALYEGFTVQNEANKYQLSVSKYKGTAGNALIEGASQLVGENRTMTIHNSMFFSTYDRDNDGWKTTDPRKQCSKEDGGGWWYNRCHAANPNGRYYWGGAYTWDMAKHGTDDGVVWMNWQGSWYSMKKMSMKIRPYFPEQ
T1 sequence (P02672 20-615 partner): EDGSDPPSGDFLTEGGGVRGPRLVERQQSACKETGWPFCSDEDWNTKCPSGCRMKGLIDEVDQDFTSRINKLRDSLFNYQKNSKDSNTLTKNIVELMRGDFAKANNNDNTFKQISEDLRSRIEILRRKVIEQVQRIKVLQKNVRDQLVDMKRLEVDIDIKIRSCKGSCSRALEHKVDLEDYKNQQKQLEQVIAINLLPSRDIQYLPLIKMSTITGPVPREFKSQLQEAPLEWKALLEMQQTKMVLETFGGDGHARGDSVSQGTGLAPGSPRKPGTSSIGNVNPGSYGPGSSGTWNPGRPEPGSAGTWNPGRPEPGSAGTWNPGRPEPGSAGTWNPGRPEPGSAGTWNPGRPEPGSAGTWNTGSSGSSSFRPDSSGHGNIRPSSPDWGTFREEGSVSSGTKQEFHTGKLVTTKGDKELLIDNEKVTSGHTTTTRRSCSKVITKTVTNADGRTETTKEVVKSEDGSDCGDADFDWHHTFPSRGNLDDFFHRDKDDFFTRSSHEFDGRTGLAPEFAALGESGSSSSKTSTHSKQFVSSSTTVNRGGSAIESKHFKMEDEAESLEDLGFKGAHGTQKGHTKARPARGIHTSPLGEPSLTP
Description: (§1) Two techniques were used to confirm that PEG-peptides retained the ability to bind to fibrinogen (Fig. 1 and Table I, right): Fluorescence Anisotropy (FA) and Isothermal Titration Calorimetry (ITC). In FA measurements [Fig. 1(a)], the dissociation constant (Kd) was determined via saturation experiments for the non-conjugated peptides, and via competition experiments for the PEG-peptides. In the first case, saturation was achieved by adding increasing amounts of fibrinogen to a given amount of fluorescein-labelled peptides. In competition experiments, fibrinogen was pre-complexed with fluorescein-labelled peptides; these low molecular weight fluorophores were displaced upon addition of non-labelled conjugates, with a corresponding decrease in the polarization of the emitted light (smaller tumbling time).
The sample cell for this study can contain up to 270 μl of liquid. Fibrinogen/peptide samples were prepared adding 2 μl aliquots of peptide solution (5.91, 5.92, and 5.73 mM for Pep1, Pep2, and Pep3, respectively) under continuous stirring to 200 μl of 0.175 mM of bovine fibrinogen solution. Fibrinogen/PEG-peptide complexes were prepared adding 2 μl of 1.7 mM of PEG-pep1 or 5.2 mM of PEG-pep2 to 200 μl of 0.012 mM of bovine fibrinogen solution. Note that fibrinogen was prepared as follow: 60 mg of fibrinogen were dissolved in 1 mL HBS for 2 h at 37 °C and then dialyzed (Float-A-Lyzer G2 MWCO: 0.5–1 kDa, Spectrum, Inc.) against HBS for 24 h.

fibrinogen [1] = target: T2, fibrinogen (Bos taurus, UniProt P02672+P02676+P12799); assay: Fluorescence anisotropy (FA) saturation experiments with fluorescein-labelled peptides; assay type: binding; conditions: 5IAF-labelled peptide 25-30 μM, fibrinogen 50 nM-103 μM, HBS, 1 h room temperature; Hill model; n = 3
T2 sequence (P12799 25-444): T1 sequence (P12799 25-444)
T2 sequence (P02676 1-468): T1 sequence (P02676 1-468)
T2 sequence (P02672 20-615 partner): T1 sequence (P02672 20-615 partner)
Description: as §1
Equal volumes (100 μl) of a labelled peptide solution (5IAF-pep1, 5IAF-pep2, or 5IAF-pep3) in HEPES (4-(2-hydroxyethyl)-1-piperazineethanesulfonic acid)-buffered saline (HBS) and of a fibrinogen solution were mixed together by gentle pipetting into a 96-well plate to obtain final concentrations of fibrinogen ranging from 50 nM to 103 μM, and a constant peptide concentration, i.e., 26 μM for 5IAF-pep1, 25 μM for 5IAF-pep2, or 30 μM for 5IAF-pep3. […] All mixed reagents were incubated for 1 h at room temperature before recording fluorescence polarization values.

fibrin clotting = conditions: cited from earlier work
fibrinogen [2] = target: T2, fibrinogen; assay: Fluorescence anisotropy (FA) competition experiments (displacement of 5IAF-peptides from fibrinogen); assay type: binding; conditions: 36 μM fibrinogen pre-complexed with 5IAF-pep1 (0.25 μM) or 5IAF-pep2 (0.8 μM), displaced by PEG-peptide, 1 h 37 °C, HBS; n = 3
Description: as §1
Fibrinogen/5IAF-pep1 or 5IAF-pep2 complexes were prepared as described in the saturation experiments using 50 μl initial volumes and keeping the fibrinogen concentration fixed. Solutions were pre-incubated for 1 h at room temperature before 50 μl of PEG-peptide 1 or 2 solutions in HBS was added into the wells to obtain a final volume of 150 μl per well. Final concentrations were 36 μM fibrinogen; 0.25 μM 5IAF-pep1 and 0.6 μM to 1.2 mM PEG-pep1; 0.8 μM 5IAF-pep2; and 0.2 μM to 5 mM PEG-pep2. Polarization values were measured after 1 h of incubation at 37 °C. […]

[3] = system: adult Human Dermal Fibroblasts (HDFa); assay: Fibrin-in-fibrin HDFa migration assay (radial invasion); assay type: cell-based; conditions: 220 KIU of aprotinin in the media
Description: This migration assay is based on a fibrin-in-fibrin assay: when a volume of HDFa-laden fibrinogen solution is injected into a gelling fibrinogen-based formulation, cells migrate from the clot into the surrounding matrix; the maximum distance covered in the unit time [Fig. 8(a) top and insert in the bottom graph] is a measure of the cell migration capacity. This model is particularly advantageous to assess the migration of cells separately from other phenomena; for example, if seeded homogeneously and/or moving as a coherent front, cells can rapidly remodel and contract the matrix,[41] and this can profoundly influence the characteristics of their migration too.[42]
Standard cell culture methods are reported in the supplementary material, Sec. 1.4SI. For the migration assays, adult Human Dermal Fibroblasts (HDFa) were gently suspended in 12.5 mg/ml fibrinogen (in HBS) at a final cell density of 3 × 10^7 cells/ml. […] The cell migration rate was measured by analyzing acquired images with ImageJ (v1.49p, http://rsb.info.nih.gov/ij): the migration area was approximated to a circle and the cell invasion was thus quantified as the variation of the initial diameter, as previously reported by Lutolf et al.[28] An average of nine time points per diameter were measured from day 0 to 8, returning the average migration rate (μm/day). […]

With GHRPGCG [Pep2] the Kd (bovine fibrinogen) was 351 ± 10 µM and the Kd (fibrinogen [1]) was 335 ± 6 µM.
In the case of GPRP [glycine-proline-arginine-proline], the “effect on fibrin clotting” value (fibrin clotting; 1:20 fibrinogen/peptide molar ratio) is given as “significantly reduce fibrin clotting” and the “effect on fibrin clotting” value (fibrin clotting; above 1:100 fibrinogen/peptide molar ratio) is given as “completely prevent”.
Substance GPRPGCG [Pep1] has a Kd (bovine fibrinogen) of 44 ± 9 µM and a Kd (fibrinogen [1]) of 40 ± 1 µM.
“PEG-pep1: 2 kDa PEG vinyl sulfone conjugated to Pep1; rest of material PEG-ME (GPRPGCG; Cys6 thiol joined by thioether (Michael addition) to 2 kDa PEG vinyl sulfone; free N-terminus (A-knob mimic); about 20 mol% of the material is PEG-mercaptoethanol; The GC)” showed a Kd (bovine fibrinogen) of 103 ± 5 µM and a Kd (fibrinogen [2]) of 135 ± 8 µM.
With aprotinin the “HDFa migration rate in presence vs absence of the inhibitor” value [3] was “virtually identical migration rates”.
